Assay results as given in patent US20180298405A1, “METHODS AND COMPOSITIONS TO INCREASE HUMAN SOMATIC CELL NUCLEAR TRANSFER (SCNT) EFFICIENCY BY REMOVING HISTONE H3-LYSINE TRIMETHYLATION, AND DERIVATION OF HUMAN NT-ESC” (CHILDREN'S MEDICAL CENTER CORPORATION, priority 2015, published 2018).

Tested on: reprogramming resistant regions (RRRs) / ZGA genes
Assay: RNA-seq of late 8-cell human SCNT embryos with or without KDM4A mRNA injection (ZGA of RRRs, KDM4A-responsive genes)
Assay type: cell-based
Source text: A sliding window (size 20 kb, step size 10 kb) was used to assess the genome-wide expression level of 4-cell and 8-cell human embryos. For each window, the expression level was quantified with normalized RPM (reads per millions of uniquely mapped reads). […] These activated regions were classed into three groups based on their expression differences in human SCNT and IVF 8-cell embryos.
The SCNT embryos used for ZGA analysis were generated using oocytes donated by a single healthy person (#64) and dermal fibroblast cells from an AMD patient (DFB-8). SCNT and IVF embryos were cultured up to late 8-cell stage, when the compaction of blastomeres is initiated, then they were treated briefly with acid Tyrode solution to remove zona pellucida. To prepare for the 8-cell SCNT embryo, oocytes from a single oocyte donor, and skin fibroblast cells from a single somatic nuclear donor were used. All the procedures are the same as described in the “Human SCNT procedure and KMD4A mRNA injection” section. Only embryos that reached the late 8-cell stage synchronically 74 hours post activation were collected and used for this experiment.
For preparation of the control IVF embryos, several donated early 8-cell stage IVF embryos were thawed and cultured for 5-7 hours to allow them to reach late 8-cell stage before being processed. After removal of the zona pellucida, the denuded embryos were washed 3 times in PBS, loaded into RNAse and DNAse free PCR tubes, spin downed, and snap frozen in liquid nitrogen. Then, they were kept at −80° C. until use. As controls, dermal fibroblast cells of somatic nuclear donors were also prepared. Those fibroblast cells were cultured in a 25 cm^2 flask in DMEM 10% FBS, and approximately 10,000 cells/donor were collected, snap frozen, and stored at −80° C. until use.
Five 8-cell embryos for each group were directly lysed and used for cDNA synthesis using SMART-Seq v4 Ultra Low Input RNA Kit (Clontech). For MEF donor, 10 ng total RNA was used for cDNA synthesis using SMART-Seq v4 Ultra Low Input RNA Kit. After amplification, the cDNA samples were fragmented using Covaris sonicator M220 to an average size of 150 bp (Covaris). Sequencing libraries were made with the fragmented DNA using NEBNext Ultra DNA Library Prep Kit for Illumina according to manufacturer's instruction (New England Biolabs) with different barcodes. For each RNA-seq analysis of hESCs, 1 μg total RNA was used for mRNA purification. Barcoded RNA-seq libraries were generated using NEBNext Ultra Directional RNA Library Prep Kit for Illumina (New England Biolabs). Single end 50 bp sequencing was performed on a HiSeq 2500 sequencer (Illumina). Sequencing reads were mapped to the human genome (hg19) with Tophat2. All programs were performed with default settings (unless otherwise specified). At least 22 million uniquely mapped reads were obtained for each sequencing library, and subsequently assembled into transcripts guided by the reference annotation (Refseq gene models) with Cufflinks v2.0.2. Expression level of each gene was quantified with normalized FPKM (fragments per kilobase of exon per million mapped fragments). Statistical analyses were performed with R (available at: “www.r-project.org/”). Independent 2 group Wilcoxon rank sum tests were used to compare distributions using the wilcox.test function in R. Pearson's r coefficient was calculated using the cor function with default parameters. The hierarchical clustering analysis of the global gene expression pattern in different samples was carried out using heatmap.2 function (gplots package) in R.

[1] = 8-cell SCNT embryos, FC>2 versus non-injected

## KDM4A mRNA: in vitro transcribed mRNA of full length human KDM4A/JHDM3A cDNA, an H3K9me3 demethylase (SEQ ID NO: 1)
[1]
  fraction of the 318 RRRs markedly up-regulated: 50%
  number of the 318 RRRs markedly up-regulated: 158
8-cell SCNT embryos, FPKM>5, FC>2
  number of genes significantly up-regulated (KDM4A-responsive genes): 206
8-cell embryos
  12-Sep Fold Change (log2) [KDM4A SCNT/Control SCNT]: 2 log2
  AASDH Fold Change (log2) [KDM4A SCNT/Control SCNT]: 1.19 log2
  ACBD5 Fold Change (log2) [KDM4A SCNT/Control SCNT]: 1.32 log2
  ALG5 Fold Change (log2) [KDM4A SCNT/Control SCNT]: 1.89 log2
  ALPPL2 Fold Change (log2) [KDM4A SCNT/Control SCNT]: 1.25 log2
  APOC1P1 Fold Change (log2) [KDM4A SCNT/Control SCNT]: 1.03 log2
  ATP5J2-PTCD1 Fold Change (log2) [KDM4A SCNT/Control SCNT]: 5.53 log2
  BEX2 Fold Change (log2) [KDM4A SCNT/Control SCNT]: 1.05 log2
  BLVRB Fold Change (log2) [KDM4A SCNT/Control SCNT]: 1.56 log2
  BTAF1 Fold Change (log2) [KDM4A SCNT/Control SCNT]: 1.93 log2
  BTK Fold Change (log2) [KDM4A SCNT/Control SCNT]: 1.09 log2
  BUD31 Fold Change (log2) [KDM4A SCNT/Control SCNT]: 1.19 log2
  C1D Fold Change (log2) [KDM4A SCNT/Control SCNT]: 1.67 log2
  C2orf74 Fold Change (log2) [KDM4A SCNT/Control SCNT]: 1.28 log2
  C11orf67 Fold Change (log2) [KDM4A SCNT/Control SCNT]: 1.34 log2
  C12orf60 Fold Change (log2) [KDM4A SCNT/Control SCNT]: 1.78 log2
  C16orf91 Fold Change (log2) [KDM4A SCNT/Control SCNT]: 1.24 log2
  C17orf89 Fold Change (log2) [KDM4A SCNT/Control SCNT]: 1.09 log2
  C18orf56 Fold Change (log2) [KDM4A SCNT/Control SCNT]: 1.43 log2
  C20orf7 Fold Change (log2) [KDM4A SCNT/Control SCNT]: 2.14 log2
  CAB39L Fold Change (log2) [KDM4A SCNT/Control SCNT]: 1.23 log2
  CCAR1 Fold Change (log2) [KDM4A SCNT/Control SCNT]: 1.15 log2
  CCDC86 Fold Change (log2) [KDM4A SCNT/Control SCNT]: 1.1 log2
  CCL2 Fold Change (log2) [KDM4A SCNT/Control SCNT]: 3.05 log2
  CCL15 Fold Change (log2) [KDM4A SCNT/Control SCNT]: 2.82 log2
  CELA3B Fold Change (log2) [KDM4A SCNT/Control SCNT]: 1.63 log2
  CENPC1 Fold Change (log2) [KDM4A SCNT/Control SCNT]: 1.1 log2
  CLC Fold Change (log2) [KDM4A SCNT/Control SCNT]: 3.69 log2
  CLDN6 Fold Change (log2) [KDM4A SCNT/Control SCNT]: 1.65 log2
  CLK4 Fold Change (log2) [KDM4A SCNT/Control SCNT]: 1.21 log2
  CNKSR3 Fold Change (log2) [KDM4A SCNT/Control SCNT]: 1.48 log2
  CNPY4 Fold Change (log2) [KDM4A SCNT/Control SCNT]: 1.77 log2
  COX7B2 Fold Change (log2) [KDM4A SCNT/Control SCNT]: 3.15 log2
  COX17 Fold Change (log2) [KDM4A SCNT/Control SCNT]: 1.44 log2
  CSAG1 Fold Change (log2) [KDM4A SCNT/Control SCNT]: 3.27 log2
  CSTF3 Fold Change (log2) [KDM4A SCNT/Control SCNT]: 1.29 log2
  CUL2 Fold Change (log2) [KDM4A SCNT/Control SCNT]: 1.29 log2
  CXorf61 Fold Change (log2) [KDM4A SCNT/Control SCNT]: 2.18 log2
  DDX26B Fold Change (log2) [KDM4A SCNT/Control SCNT]: 1.14 log2
  DEFB122 Fold Change (log2) [KDM4A SCNT/Control SCNT]: 1.06 log2
  DLEU7 Fold Change (log2) [KDM4A SCNT/Control SCNT]: 4.91 log2
  DNASE2 Fold Change (log2) [KDM4A SCNT/Control SCNT]: 1.11 log2
  DRAM1 Fold Change (log2) [KDM4A SCNT/Control SCNT]: 1.6 log2
  ECE2 Fold Change (log2) [KDM4A SCNT/Control SCNT]: 1.09 log2
  EIF1AD Fold Change (log2) [KDM4A SCNT/Control SCNT]: 1.18 log2
  ELL2 Fold Change (log2) [KDM4A SCNT/Control SCNT]: 1.01 log2
  FAM9A Fold Change (log2) [KDM4A SCNT/Control SCNT]: 3.83 log2
  FAM19A3 Fold Change (log2) [KDM4A SCNT/Control SCNT]: 2.58 log2
  FAM83D Fold Change (log2) [KDM4A SCNT/Control SCNT]: 1.32 log2
  FAM133B Fold Change (log2) [KDM4A SCNT/Control SCNT]: 1.1 log2
  FAM151A Fold Change (log2) [KDM4A SCNT/Control SCNT]: 1.99 log2
  FAM162A Fold Change (log2) [KDM4A SCNT/Control SCNT]: 1.73 log2
  FAM200A Fold Change (log2) [KDM4A SCNT/Control SCNT]: 1.17 log2
  FASTKD5 Fold Change (log2) [KDM4A SCNT/Control SCNT]: 1.05 log2
  FBXL12 Fold Change (log2) [KDM4A SCNT/Control SCNT]: 1.74 log2
  FMR1NB Fold Change (log2) [KDM4A SCNT/Control SCNT]: 1.49 log2
  FOXN2 Fold Change (log2) [KDM4A SCNT/Control SCNT]: 1.29 log2
  GALM Fold Change (log2) [KDM4A SCNT/Control SCNT]: 1.55 log2
  GIP Fold Change (log2) [KDM4A SCNT/Control SCNT]: 1.59 log2
  GJA1 Fold Change (log2) [KDM4A SCNT/Control SCNT]: 1.36 log2
  GOLGB1 Fold Change (log2) [KDM4A SCNT/Control SCNT]: 1.58 log2
  GUCA1B Fold Change (log2) [KDM4A SCNT/Control SCNT]: 1.02 log2
  GUSBP1 Fold Change (log2) [KDM4A SCNT/Control SCNT]: 1.11 log2
  GUSBP4 Fold Change (log2) [KDM4A SCNT/Control SCNT]: 1.12 log2
  H3F3A Fold Change (log2) [KDM4A SCNT/Control SCNT]: 1.84 log2
  IFI30 Fold Change (log2) [KDM4A SCNT/Control SCNT]: 1.05 log2
  IL13RA2 Fold Change (log2) [KDM4A SCNT/Control SCNT]: 1.85 log2
  KHDC1 Fold Change (log2) [KDM4A SCNT/Control SCNT]: 1.89 log2
  KHDC1L Fold Change (log2) [KDM4A SCNT/Control SCNT]: 1.54 log2
  KITLG Fold Change (log2) [KDM4A SCNT/Control SCNT]: 2.36 log2
  KLF17 Fold Change (log2) [KDM4A SCNT/Control SCNT]: 1.19 log2
  KLK4 Fold Change (log2) [KDM4A SCNT/Control SCNT]: 1.68 log2
  KLK11 Fold Change (log2) [KDM4A SCNT/Control SCNT]: 1.76 log2
  KPTN Fold Change (log2) [KDM4A SCNT/Control SCNT]: 4.35 log2
  LARP6 Fold Change (log2) [KDM4A SCNT/Control SCNT]: 1.35 log2
  LEMD3 Fold Change (log2) [KDM4A SCNT/Control SCNT]: 1.11 log2
  LIM2 Fold Change (log2) [KDM4A SCNT/Control SCNT]: 1.99 log2
  LINC00263 Fold Change (log2) [KDM4A SCNT/Control SCNT]: 1.39 log2
  LOC284408 Fold Change (log2) [KDM4A SCNT/Control SCNT]: 2.24 log2
  LOC347411 Fold Change (log2) [KDM4A SCNT/Control SCNT]: 1.36 log2
  LOC401397 Fold Change (log2) [KDM4A SCNT/Control SCNT]: 1.75 log2
  LOC643955 Fold Change (log2) [KDM4A SCNT/Control SCNT]: 1.44 log2
  LOC653513 Fold Change (log2) [KDM4A SCNT/Control SCNT]: 2.12 log2
  LOC723809 Fold Change (log2) [KDM4A SCNT/Control SCNT]: 1.15 log2
  LOC100129515 Fold Change (log2) [KDM4A SCNT/Control SCNT]: 1.03 log2
  LOC100289211 Fold Change (log2) [KDM4A SCNT/Control SCNT]: 2.34 log2
  LOC100505854 Fold Change (log2) [KDM4A SCNT/Control SCNT]: 1.58 log2
  LOC100506305 Fold Change (log2) [KDM4A SCNT/Control SCNT]: 1.2 log2
  LOC100506668 Fold Change (log2) [KDM4A SCNT/Control SCNT]: 1.63 log2
  LUC7L Fold Change (log2) [KDM4A SCNT/Control SCNT]: 1.28 log2
  M1 Fold Change (log2) [KDM4A SCNT/Control SCNT]: 4.71 log2
  MAGEA12 Fold Change (log2) [KDM4A SCNT/Control SCNT]: 1.81 log2
  MAGEB2 Fold Change (log2) [KDM4A SCNT/Control SCNT]: 3.15 log2
  MATR3 Fold Change (log2) [KDM4A SCNT/Control SCNT]: 1.11 log2
  MED31 Fold Change (log2) [KDM4A SCNT/Control SCNT]: 1.44 log2
  MFSD11 Fold Change (log2) [KDM4A SCNT/Control SCNT]: 1.4 log2
  MPV17L2 Fold Change (log2) [KDM4A SCNT/Control SCNT]: 1.54 log2
  MRPL28 Fold Change (log2) [KDM4A SCNT/Control SCNT]: 1.59 log2
  MTERF Fold Change (log2) [KDM4A SCNT/Control SCNT]: 2.39 log2
  NANOGNB Fold Change (log2) [KDM4A SCNT/Control SCNT]: 1.79 log2
